Source: EPA's ToxValDB 9.5
In brackets after ≈: the same amount, converted by molar mass.

Key:
Pleurozium sp. = details: acute; duration: 72 hours; growth
Bibionidae = details: chronic/long-term; duration: 28 days; other
Equus caballus = details: short-term; duration: 14 days; oral; feed; M/F; no effects
Sinapis alba = details: not reported; no effects
Canidae = details: for NOAEL: oral
Sus scrofa = details: short-term; duration: 10 days; Not specified; no effects
Tagia sp. = details: for NOEC: chronic/long-term, duration: 56 days
Triticum sp. = details: not reported; no effects
[1] = tested on: Vigna radiata var. radiata; details: not reported; no effects
Daphnia magna = details: chronic/long-term, duration: 21 days
Aphidius rhopalosiphi [2] = test: LR50; higher = less toxic; details: not reported; mortality
Typhlodromus pyri [3] = details: not reported; mortality
Chalcophaps sp. = details: subchronic; oral; feed; clinical chemistry
Coturnix japonica = details: acute; oral; mortality
Coturnix coturnix = details: repeat dose other; food consumption
Perdix sp. = details: not reported; mortality
Anser anser = details: not reported; oral; feed; mortality
Homo sapiens = details: clinical; oral; M; clinical signs
Macaca mulatta = details: chronic; duration: 1 years; oral; gavage; M/F; clinical signs
Typhlodromus pyri [4] = test: LR50; higher = less toxic; details: not reported; mortality
Aphidius rhopalosiphi [5] = details: not reported; mortality
Oncorhynchus mykiss = details: for LC50: acute, duration: 96 hours, mortality
Bovidae = details: subchronic; duration: 30 days; oral; gavage; histopathology: neoplastic
Anatidae = details: subchronic; duration: 7 weeks; body weight
Ictalurus punctatus = details: not reported; mortality
Neomysis kadiakensis = details: acute; duration: 96 hours; mortality
Apis mellifera = details: acute, mortality
[6] = subchronic, duration: 5 weeks, clinical signs

CCCCCCCCCCOc1cc2c(=O)c(C(=O)OCC)c[nH]c2cc1OCC [Decoquinate]
NOEC (Pleurozium sp.): 73 µg/L
NOEC (Bibionidae): 16.3 mg/kg
LEL (Equus caballus): 6.25 mg/kg-day
LEL (Gallus gallus; short-term, duration: 21 days, no effects): ≤ 150 mg/L
LEL (Gallus gallus; subchronic, duration: 35 days, oral, diet, Chicken, no effects): 400 mg/kg-day
LEL (Gallus gallus; subchronic, duration: 42 days, oral, diet, no effects): 400 mg/kg-day
NOEC (subchronic, duration: 56 days, other): ≥ 9.2 mg/kg-day
NOEC (Sinapis alba): ≤ 100 mg/kg
NOEL (Canidae; subchronic, duration: 12 weeks, Beagle, behavior): 15 mg/kg-day
LEL (Sus scrofa): 80 mg/kg-day
NOEC (Tagia sp.; no effects): > 1000 mg/kg
NOEC (Tagia sp.; reproduction): 1000 mg/kg
NOEC (Triticum sp.): ≤ 100 mg/kg
NOEL (Rattus norvegicus; developmental, duration: 11 days, oral, gavage, F, Sprague-Dawley, development): 100 mg/kg-day
NOEC [1]: ≤ 100 mg/kg
NOEL (Oryctolagus sp.; developmental, duration: 11 days, oral, capsule, F, New Zealand, development): 60 mg/kg-day
NOAEL (Oryctolagus sp.; reproduction developmental, F, mortality): 60 mg/kg-day
NOEC (Daphnia magna; no effects): 35.2 µg/L

COP(=O)(OC)C(O)C(Cl)(Cl)Cl (stereo not drawn) [Trichlorfon]
LR50 (Aphidius rhopalosiphi [2]): 0.519 g/ha
LC50 (Tagia sp.; acute, duration: 14 days, mortality): 140 mg/kg
LD50 (Rattus norvegicus; acute, oral, F, mortality): 212 mg/kg-day
NOAEL (Rattus norvegicus; chronic, oral, M): 13.2 mg/kg-day
LEL (Typhlodromus pyri [3]): 1200 g/ha

Clc1ccc(C(c2ccc(Cl)cc2)C(Cl)(Cl)Cl)cc1 [DDT]
NOAEL (Anas platyrhynchos; subchronic, mortality): 0.6 mg/kg-day
LEL (Chalcophaps sp.): 0.6 mg/kg-day

CNC(=O)Oc1cc(C)c(SC)c(C)c1 [Methiocarb]
LC50 (Anas platyrhynchos; short-term, oral, feed, mortality): 1070 mg/kg
NOEC (Colinus virginianus; reproduction developmental, reproduction): 4.51 mg/kg-day
LD50 (Coturnix japonica): 5 mg/kg

Br.O=C(C[C@H]1NCCC[C@@H]1O)Cn1cnc2cc(Br)c(Cl)cc2c1=O [Halofuginone hydrobromide]
LEL (Meleagris sp.; chronic/long-term, duration: 20 weeks, oral, feed, body weight): 9 mg/kg
LEL (Gallus gallus; subchronic, duration: 8 weeks, oral, diet, hematological): 6 mg/kg-day
LEL (Coturnix coturnix): 3 mg/kg-day
LEL (Perdix sp.): 3 mg/kg
LEL (Anser anser): 3 mg/kg
LEL (Oryctolagus sp.; repeat dose other, food consumption): 3 mg/kg-day
NOEL (Oryctolagus sp.; reproduction developmental, body weight): 0.03 mg/kg-day

CC(CCc1ccc(O)cc1)NCC(O)c1ccc(O)cc1.Cl (stereo not drawn) [Ractopamine hydrochloride]
NOEL (Homo sapiens): 0.067 mg/kg-day
NOAEL (Canidae; acute, M/F, Beagle, clinical signs): 0.002 mg/kg-day
NOAEL (Macaca mulatta): 0.125 mg/kg-day

CC1=CC1 [1-Methylcyclopropene]
LR50 (Typhlodromus pyri [4]): > 10 ppm
LEL (Aphidius rhopalosiphi [5]): 10 mg/kg
LD50 (Colinus virginianus; acute, oral, mortality): > 81 mg/kg-day
NOAEL (reproduction developmental): 22.4 mg/kg-day
NOAEL (Canidae; subchronic, duration: 90 days, Dog Other, hematological): 22.4 mg/kg-day
LC50 (Oncorhynchus mykiss): > 0.966 µg/mL
LD50 (Tagia sp.; acute, mortality): > 4.41 ppm
LC50 (Rattus norvegicus; acute, inhalation, mortality): > 2.5 µg/mL
LD50 (Rattus norvegicus; acute, oral, mortality): > 235 mg/kg-day
NOAEL (Rattus norvegicus; reproduction developmental): 543 mg/kg-day
NOAEL (Rattus norvegicus; reproduction developmental, inhalation): 6.5 mg/kg-day
NOAEL (Rattus norvegicus; reproduction developmental, oral, diet, body weight): 3.8 mg/kg-day
NOAEL (Rattus norvegicus; short-term, duration: 3 weeks, inhalation, M): 68 mg/kg-day
NOAEL (Rattus norvegicus; subchronic, duration: 90 days, inhalation, M, hematological): 9 mg/kg-day
LEL (Typhlodromus pyri [3]): 10 mg/kg

CC(=O)OC[C@]12C[C@H](OC(=O)CC(C)C)C(C)=C[C@H]1O[C@H]1[C@H](O)[C@H](OC(C)=O)[C@@]2(C)[C@]12CO2 [T-2 toxin]
LOAEL (Meleagris sp.; [6]): 48 µg/kg-day
LOAEL (Bovidae): 0.3 mg/kg-day
LOAEL (Anatidae): 40 µg/kg-day
LOAEL (Gallus gallus; short-term, duration: 24 days, oral, diet, F, reproduction): 0.12 mg/kg-day
LOAEL (Gallus gallus; [6]): 0.04 mg/kg-day
NOAEL (Ictalurus punctatus): 13 µg/kg-day
NOAEL (Oryctolagus sp.; subchronic, oral, diet, F, clinical chemistry): 0.1 mg/kg-day

O=[N+]([O-])/N=C1\NCCN1Cc1ccc(Cl)nc1 [Imidacloprid]
LC50 (Neomysis kadiakensis): 0.0341 µg/mL (≈ 0.133 µM)
LD50 (Anas platyrhynchos; acute, oral, unspecified): 66 mg/kg-day
LD50 (Apis mellifera; dermal): 0.081 µg/piece
NOEC (Apis mellifera; dermal): < 2.5 µg/piece
LD50 (Apis mellifera; duration: 48 hours, dermal): 0.081 µg/piece
LD50 (Apis mellifera; duration: 48 hours, oral, unspecified): 0.0037 µg/piece
LD50 (Apis mellifera; duration: 120 hours, dermal): 0.0251 µg/piece
LD50 (Apis mellifera; oral, unspecified): 0.0037 µg/piece
NOAEL (Colinus virginianus; reproduction developmental): 9.3 mg/kg-day
NOEL (Colinus virginianus; short-term, oral, diet): 29.4 mg/kg-day
NOAEL (Canidae; subchronic, duration: 90 days, Dog Other, clinical signs): 7.8 mg/kg-day
LC50 (Oncorhynchus mykiss): > 83 µg/mL
NOEC (Oncorhynchus mykiss; chronic/long-term, duration: 91 days, time to hatch): 9.02 mg/L
LD50 (Rattus norvegicus; acute): 256 mg/kg-day
NOAEL (Rattus norvegicus; chronic): 17 mg/kg-day
NOAEL (Rattus norvegicus; chronic, duration: 2 years, M, histopathology: nonneoplastic): 5.7 mg/kg-day
NOAEL (Rattus norvegicus; subchronic, duration: 90 days, oral, histopathology: nonneoplastic): 9.3 mg/kg-day
NOEC (Daphnia magna; reproduction): 1800 µg/L
